Earlier results as cited in patent publication US10201577B2, “Compositions and methods for enhancing working and long-term memory support using new combination of ginkgo biloba and panax ginseng and associated components” (KEYVIEW LABS, INC., priority 2017, dated 2019).

How the values were obtained:
[1] = in vivo, po
[2] = test system: acetylcholine release; details: isolated Rb1
[3] = test system: long term potentiation (LTP); details: in vivo
[4] = molecular target: T1, choline acetyltransferase (Homo sapiens, UniProt P28329); details: isolated Rb1
T1 sequence (P28329 1-748): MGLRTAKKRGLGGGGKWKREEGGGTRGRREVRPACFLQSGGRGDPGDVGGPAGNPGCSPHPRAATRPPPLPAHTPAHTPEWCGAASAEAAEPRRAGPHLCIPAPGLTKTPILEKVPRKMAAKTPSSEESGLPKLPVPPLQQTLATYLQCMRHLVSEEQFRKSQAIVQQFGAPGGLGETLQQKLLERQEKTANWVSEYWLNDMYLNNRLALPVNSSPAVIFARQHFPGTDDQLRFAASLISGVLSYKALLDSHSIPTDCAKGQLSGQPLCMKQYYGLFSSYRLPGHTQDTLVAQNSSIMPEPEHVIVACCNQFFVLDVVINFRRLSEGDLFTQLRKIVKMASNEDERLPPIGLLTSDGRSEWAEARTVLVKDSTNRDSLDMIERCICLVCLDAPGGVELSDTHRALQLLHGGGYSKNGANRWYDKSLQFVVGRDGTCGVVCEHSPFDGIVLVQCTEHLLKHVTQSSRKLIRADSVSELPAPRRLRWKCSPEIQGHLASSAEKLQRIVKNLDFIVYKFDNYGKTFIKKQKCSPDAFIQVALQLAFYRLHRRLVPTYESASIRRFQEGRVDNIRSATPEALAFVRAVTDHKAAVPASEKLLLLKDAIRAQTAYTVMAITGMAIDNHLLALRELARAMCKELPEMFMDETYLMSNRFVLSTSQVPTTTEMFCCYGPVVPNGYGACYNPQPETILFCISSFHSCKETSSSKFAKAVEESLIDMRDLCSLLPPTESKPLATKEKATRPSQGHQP

elimination half-life [1] [h] | time of peak plasma level [1] | choline acetyltransferase activity [4] | SMILES | acetylcholine release [2] | long term potentiation (LTP) [3]
4.31 ± 0.49 | around 2.25±0.45 hours |  | CC1C(=O)OC2C(O)C34C5CC(C(C)(C)C)C36C(OC(=O)C6O)OC4(C(=O)O5)C12O (centres unmarked) [Ginkgolide B] |  | 
 |  | stimulates | CC(C)=CCC[C@](C)(O[C@@H]1O[C@H](CO[C@@H]2O[C@H](CO)[C@@H](O)[C@H](O)[C@H]2O)[C@@H](O)[C@H](O)[C@H]1O)[C@H]1CC[C@]2(C)[C@@H]1[C@H](O)C[C@@H]1[C@@]3(C)CC[C@H](O[C@@H]4O[C@H](CO)[C@@H](O)[C@H](O)[C@H]4O[C@@H]4O[C@H](CO)[C@@H](O)[C@H](O)[C@H]4O)C(C)(C)[C@@H]3CC[C@]12C [Rb1] | stimulates | capable of in vivo modulation
